Assay results as given in patent US20070032529A1, “Pyrazole compounds and their use as antidiabetes agents” (Japan Tobacco Inc., priority 2005, published 2007).

The compounds below were run against T1, recombinant human liver glycogen phosphorylase (Homo sapiens, UniProt P06737) (assay: Measuring liver glycogen phosphorylase activity (forward reaction system, NADPH absorbance at 340 nm)). Details: compound concentration 100 nmol (in parentheses).
T1 construct: made in house; host or cells: Sf9 insect cells (crude homogenate, diluted, used as the enzyme solution)
T1 sequence (P06737 1-847): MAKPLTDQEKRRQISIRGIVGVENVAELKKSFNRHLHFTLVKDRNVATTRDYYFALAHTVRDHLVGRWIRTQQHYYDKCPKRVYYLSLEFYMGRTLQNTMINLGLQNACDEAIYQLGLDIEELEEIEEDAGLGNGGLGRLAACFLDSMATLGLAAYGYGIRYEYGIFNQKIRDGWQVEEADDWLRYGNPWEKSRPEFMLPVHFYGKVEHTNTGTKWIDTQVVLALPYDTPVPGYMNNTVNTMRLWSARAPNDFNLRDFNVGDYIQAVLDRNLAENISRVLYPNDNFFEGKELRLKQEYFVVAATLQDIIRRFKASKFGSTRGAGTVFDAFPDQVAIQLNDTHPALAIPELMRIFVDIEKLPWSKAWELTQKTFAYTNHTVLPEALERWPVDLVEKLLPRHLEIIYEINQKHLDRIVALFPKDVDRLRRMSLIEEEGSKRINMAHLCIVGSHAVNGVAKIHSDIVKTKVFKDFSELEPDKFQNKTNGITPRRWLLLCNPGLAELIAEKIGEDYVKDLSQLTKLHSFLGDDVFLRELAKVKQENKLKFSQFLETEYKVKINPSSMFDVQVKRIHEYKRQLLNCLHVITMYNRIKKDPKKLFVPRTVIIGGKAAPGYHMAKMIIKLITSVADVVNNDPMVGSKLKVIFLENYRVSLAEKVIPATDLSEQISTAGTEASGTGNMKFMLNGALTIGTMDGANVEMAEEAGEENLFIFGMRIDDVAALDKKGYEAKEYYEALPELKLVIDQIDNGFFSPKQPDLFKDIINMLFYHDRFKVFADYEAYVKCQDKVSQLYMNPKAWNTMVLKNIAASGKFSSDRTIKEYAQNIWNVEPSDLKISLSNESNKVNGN
Format: biochemical
Description: [Pharmacological Test] 1. Exemplary Test (1) Method for Measuring Liver Glycogen Phosphorylase Activity
The measurement of glycogen phosphorylase activity was carried out by a method using the forward reaction system.
The measurement of glycogen phosphorylase activity using the forward reaction system was carried out as follows. Glucose-1-phosphate prepared from glycogen by glycogen phosphorylase was converted into glucono-δ-lactone 6-phosphate through transphosphorylation and dehydrogenation using phosphoglucomutase and glucose-6-phosphate dehydrogenase (G6PDH). NADPH generated from NADP during the dehydrogenation by G6PDH was detected.
A homogenate of the Sf9 cells which expressed exogenously recombinant human liver glycogen phosphorylase was diluted with 100 mmol/LBES buffer solution (pH 6.8, containing 2 mmol/L EDTA) and the dilution was used as the enzyme solution of human liver glycogen phosphorylase. As the substrate, a phosphate buffer (containing 16 mmol/L KH2PO4, 24 mmol/L Na2HPO4) was used. A mixture of 8 U/mL phosphoglucomutase and 60 U/mL G6PDH was prepared in BES buffer solution. Buffer solution (containing 1.4 mmol/L NADP, 30 mmol/L MgCl2, 8 μmol/L glucose-1,6-diphosphate, 8 mg/mL glycogen, 40 mmol/LBES, 0.8 mmol/L EDTA) for reaction and a glucose solution (containing 75 mmol/L glucose, 100 mmol/LBES, 2 mmol/L EDTA) were prepared individually. The test compound was dissolved in 1% DMSO solution.
The enzymatic reaction was begun by adding 20 μL of the recombinant human liver glycogen phosphorylase solution and 20 μL of the mixture of phosphoglucomutase and G6PDH to the mixture of 20 μL of the glucose solution, 20 μL of the substrate, 100 μL of the buffer solution for reaction and 20 μL of the test compound solution. As control, 1% DMSO solution was added instead of the test compound. The mixture without the substrate was used as blank. The absorbance at 340 nm was measured immediately after the reaction started. The absorbance at 340 nm was measured again after reacting at room temperature for 75 minutes. The enzymatic activity is a value obtained by subtracting the blank variation in absorbance over 75 minutes from the variation in absorbance over 75 minutes.
The inhibition rate (%) of the test compound was calculated by the expression “(1-enzymatic activity of test compound/enzymatic activity of control)×100.”
A linear equation was determined from the two concentration points with the 50% inhibition rate therebetween, and the IC50 value was calculated from the concentration at the intersection of the line with the 50% inhibition rate.
“IC50” in the tables indicates the above-described enzyme inhibitory activity with respect to liver glycogen phosphorylase, and the activity to inhibit liver glycogen phosphorylase was represented as ++ when the IC50 value (nmol/L) was less than 100 nmol/L, as + when the IC50 value was between 100 nmol/L and 300 nmol/L. When IC50 is 300 nmol/L or more, an inhibition rate (%) at a certain concentration of the compound (I) of the present invention is shown in Tables. For example, when the inhibition rate is 20% at a concentration of 300 nmol, the rate is described as 20% (300).
`CCOC(=O)C(C)(C)c1cnc(NC(=O)c2cc(NC(=O)c3cc(F)c(F)cc3Cl)[nH]n2)c(OCC)c1` [Example 1-149] was tested, and the “inhibition rate (%) at a certain concentration” value was 20.8%(100).

Same assay, conditions: compound concentration 100 nmol (in parentheses); read-out: inhibition rate (%) at a certain concentration
`O=C(NCCc1cccnc1)c1cc(NC(=O)c2cc(F)c(F)cc2Cl)[nH]n1` [Example 1-140] gave an inhibition at 0.1 µM of 30.8%.

Same assay, conditions: compound concentration 300 nmol (in parentheses); read-out: inhibition rate (%) at a certain concentration
For `O=C(NC1CCCCC1)c1cc(NC(=O)c2cc(F)c(F)cc2Cl)[nH]n1` [Example 1-79], the inhibition at 0.3 µM was 23.3%.
Compound `CCCCN(C(=O)c1cc(NC(=O)c2cc(F)c(F)cc2Cl)[nH]n1)c1ccc(C(=O)OCC)cc1` [Example 4-40] has an inhibition at 0.3 µM of 3.6%.
With `O=C(NCc1ccccc1)c1cc(NC(=O)c2c(F)ccc(Cl)c2F)[nH]n1` [Example 4-21] the inhibition at 0.3 µM was 24.2%.
Compound `O=C(NCc1ccccc1)c1cc(NC(=O)c2ccc(F)cc2C(F)(F)F)[nH]n1` [Example 4-32] has an inhibition at 0.3 µM of 7.8%.
In the case of `COc1ccccc1NC(=O)c1cc(NC(=O)c2cc(F)c(F)cc2Cl)[nH]n1` [Example 3-27], the inhibition at 0.3 µM is reported as 41.5%.

Same assay, conditions: compound concentration 490 nmol (in parentheses); read-out: inhibition rate (%) at a certain concentration
`CN(Cc1ccccc1)C(=O)c1cc(NC(=O)c2cc(F)c(F)cc2Cl)[nH]n1` [Example 3-1, 5-(2-chloro-4,5-difluoro-benzoylamino)-1H-pyrazole-3-carboxylic acid benzyl-methyl-amide] gave an inhibition at 0.49 µM of 50%.

Same assay, conditions: compound concentration 640 nmol (in parentheses); read-out: inhibition rate (%) at a certain concentration
In the case of `O=C(N[C@@H](CO)c1ccccc1)c1cc(NC(=O)c2cc(F)c(F)cc2Cl)[nH]n1` [Example 3-22], the inhibition at 0.64 µM is reported as 50%.

Same assay, conditions: enzyme inhibitory activity with respect to liver glycogen phosphorylase; class symbols
`NCc1ccnc(CNC(=O)c2cc(NC(=O)c3cc(F)c(F)cc3Cl)[nH]n2)c1` [Example 5-18] gave an IC50 of less than 100 nM.
`O=C(NCc1cccc(C(F)(F)F)c1)c1cc(NC(=O)c2cc(F)c(F)cc2Cl)[nH]n1` [Example 1-28] was tested, and the IC50 was less than 100 nM.
`O=C(Nc1cc(C(=O)N(Cc2ccccc2)Cc2ccccc2)n[nH]1)c1cc(F)c(F)cc1Cl` [Example 1-74] was tested, and the IC50 was 100 to 300 nM.
Compound `COCCNC(=O)c1cc(NC(=O)c2cc(F)c(F)cc2Cl)[nH]n1` [Example 1-106] has an IC50 of 100 to 300 nM.
`COc1cccc(CNC(=O)c2cc(NC(=O)c3cc(F)c(F)cc3Cl)[nH]n2)c1OC` [Example 1-13] was tested, and the IC50 was less than 100 nM.
In the case of `Cc1cc(Cl)ccc1C(=O)Nc1cc(C(=O)NCc2ccccc2)n[nH]1` [Example 4-15], the IC50 is reported as 100 to 300 nM.
In the case of `CN(C)C1CCN(c2ccc(CNC(=O)c3cc(NC(=O)c4cc(F)c(F)cc4Cl)[nH]n3)cn2)CC1` [Example 5-40], the IC50 is reported as less than 100 nM.
In the case of `Cc1nc(-c2ccccc2)oc1CNC(=O)c1cc(NC(=O)c2cc(F)c(F)cc2Cl)[nH]n1` [Example 1-165], the IC50 is reported as less than 100 nM.
`O=C(O)CCN(Cc1ccccc1)C(=O)c1cc(NC(=O)c2cc(F)c(F)cc2Cl)[nH]n1` [Example 1-131] was tested, and the IC50 was less than 100 nM.
With `O=C(NCc1ccccc1)c1cc(NC(=O)c2ccc(F)cc2Cl)[nH]n1` [Example 4-6] the IC50 was 100 to 300 nM.
`CCc1ccc(CNC(=O)c2cc(NC(=O)c3cc(F)c(F)cc3Cl)[nH]n2)cc1` [Example 1-34] was tested, and the IC50 was less than 100 nM.
`Cc1nc(-c2ccccc2)c(CNC(=O)c2cc(NC(=O)c3cc(F)c(F)cc3Cl)[nH]n2)o1` [Example 1-166] showed an IC50 of less than 100 nM.
For `O=C(NCc1csc(-c2ccccc2)n1)c1cc(NC(=O)c2cc(F)c(F)cc2Cl)[nH]n1` [Example 2-19], the IC50 was less than 100 nM.
`Cc1nc(CNC(=O)c2cc(NC(=O)c3cc(F)c(F)cc3Cl)[nH]n2)c(C)s1` [Example 1-53] gave an IC50 of less than 100 nM.
Compound `O=C(NCc1ccccc1)c1cc(NC(=O)c2ccc(Cl)cc2Cl)[nH]n1` [Example 4-7] has an IC50 of 100 to 300 nM.
`O=C(O)CN(C(=O)c1cc(NC(=O)c2cc(F)c(F)cc2Cl)[nH]n1)c1ccccc1` [Example 4-5] gave an IC50 of 100 to 300 nM.
`COCCN(C)C(=O)c1cc(NC(=O)c2cc(F)c(F)cc2Cl)[nH]n1` [Example 1-6] showed an IC50 of 100 to 300 nM.
`CN(C)c1nc(CNC(=O)c2cc(NC(=O)c3cc(F)c(F)cc3Cl)[nH]n2)cs1` [Example 1-57] was tested, and the IC50 was less than 100 nM.
Compound `CCCN(C(=O)c1cc(NC(=O)c2cc(F)c(F)cc2Cl)[nH]n1)C1CCN(C(=O)CC(=O)O)CC1` [Example 1-124] has an IC50 of less than 100 nM.
In the case of `NC(=O)c1ccc(CNC(=O)c2cc(NC(=O)c3cc(F)c(F)cc3Cl)[nH]n2)cc1` [Example 1-122], the IC50 is reported as less than 100 nM.
In the case of `COC(=O)COc1ccccc1CNC(=O)c1cc(NC(=O)c2cc(F)c(F)cc2Cl)[nH]n1` [Example 3-47], the IC50 is reported as less than 100 nM.
Compound `COC(=O)CCNC(=O)c1ccc(CNC(=O)c2cc(NC(=O)c3cc(F)c(F)cc3Cl)[nH]n2)cc1` [Example 1-44] has an IC50 of less than 100 nM.
`O=C(NCc1cccnc1OCC(F)(F)F)c1cc(NC(=O)c2cc(F)c(F)cc2Cl)[nH]n1` [Example 1-32] showed an IC50 of less than 100 nM.
`Cc1ccc(CNC(=O)c2cc(NC(=O)c3cc(F)c(F)cc3Cl)[nH]n2)c(=O)[nH]1` [Example 2-33] gave an IC50 of less than 100 nM.
Work on `CN(C)CCN(C(=O)c1cc(NC(=O)c2cc(F)c(F)cc2Cl)[nH]n1)C1CCCCC1` [Example 3-44] yielded an IC50 of 100 to 300 nM.

Same assay, conditions: figure in brackets (100); read-out: IC50: % value given with (100)
Work on `NC(=O)CNC(=O)c1cc(NC(=O)c2cc(F)c(F)cc2Cl)[nH]n1` [Example 6-1] yielded an inhibition at 0.1 µM of 15.5%.
For `CCOC(=O)c1csc(N(CC)C(=O)c2cc(NC(=O)c3cc(F)c(F)cc3Cl)[nH]n2)n1` [Example 6-18], the inhibition at 0.1 µM was 6.8%.

Same assay, conditions: figure in brackets (300); read-out: IC50 column: % value printed with (300)
For `CN(C(=O)c1cc(NC(=O)c2cc(F)c(F)cc2Cl)[nH]n1)c1ccc(C#N)cc1` [Example 6-7], the inhibition at 0.3 µM was 12.9%.
`CNC(=O)c1ccc(N(C)C(=O)c2cc(NC(=O)c3cc(F)c(Cl)cc3Cl)[nH]n2)cc1` [Example 6-3] gave an inhibition at 0.3 µM of 9.7%.
Work on `O=C(NCc1cccnc1)c1cc(NC(=O)c2sccc2Cl)[nH]n1` [Example 7-7] yielded an inhibition at 0.3 µM of 2.9%.
For `CN(C(=O)c1cc(NC(=O)c2cc(F)c(N=[N+]=[N-])cc2Cl)[nH]n1)c1ccc(C#N)cc1` [Example 6-9], the inhibition at 0.3 µM was 5.5%.

Same assay, conditions: human liver glycogen phosphorylase; class symbol
In the case of `O=C(Nc1cc(C(=O)N2C=Nc3cc(F)ccc3C2)n[nH]1)c1cc(F)c(F)cc1Cl` [Example 6-45], the IC50 is reported as less than 100 nM.
Compound `CN(C)C(=O)Nc1cccc(CNC(=O)c2cc(NC(=O)c3cc(F)c(F)cc3Cl)[nH]n2)c1` [Example 6-36] has an IC50 of less than 100 nM.
`O=C(NCc1ccnc(-c2noc(=O)[nH]2)c1)c1cc(NC(=O)c2cc(F)c(F)cc2Cl)[nH]n1` [Example 6-50] was tested, and the IC50 was less than 100 nM.
`CN(C(=O)c1cc(NC(=O)c2cc(F)c(F)cc2Cl)[nH]n1)c1ccc(-c2noc(=S)[nH]2)cc1` [Example 6-15] showed an IC50 of less than 100 nM.
With `CC(=Nc1ccccc1CNC(=O)c1cc(NC(=O)c2cc(F)c(F)cc2Cl)[nH]n1)N(C)C` [Example 6-24] the IC50 was less than 100 nM.
In the case of `CN(C(=O)c1cc(NC(=O)c2cc(F)c(F)cc2Cl)[nH]n1)c1ccc(C(=O)NS(C)(=O)=O)cc1` [Example 6-5], the IC50 is reported as less than 100 nM.
`CC(=N)Nc1ccccc1CNC(=O)c1cc(NC(=O)c2cc(F)c(F)cc2Cl)[nH]n1` [Example 6-30] showed an IC50 of less than 100 nM.
